Here are results for 17 compounds from patent US20230093099A1, “COMPOUNDS AND METHODS OF TREATING CANCERS” (CULLGEN (SHANGHAI), INC., priority 2019, published 2023).

For the test, the system named is RS4;11 cells. Description: Cell viability assay (CellTiter-Glo) in RS4;11 cells. The class given is cell-based. The settings on record: Homo sapiens, 72 h; RS4;11 cells; cell viability, 3 days, CellTiter-Glo; read-out: IC50. As for the experimental part:
Specific exemplary heterobifunctional compounds were first characterized using cell viability assays. RS4;11 ALL cells were treated with bifunctional degraders for three days. The IC50 values ranged from 2 nM to over 10 uM.
MV4;11, RS4;11, Kasumi-1, HEL and other cells were treated with NVP-BSK805, TG101209 or selected degraders for 3 days at indicated concentrations following a 3-fold serial dilution.
HEL, RS4;11, MV4;11, Kasumi-1 and other cells were cultured at 37° C. with 5% CO2 in RPMI 1640 or DMEM Medium supplemented with 10% fetal bovine serum. Cells were authenticated using the short tandem repeat (STR) assays. Mycoplasma test results were negative.
Cells were seeded at a density of 5000 cells per well in 96-well assay plates and treated with test compounds following a 8-point or 12-point 3-fold serial dilution. Three days later, cell viability was determined using the CellTiter-Glo assay kit according to the manufacturer's instructions. The dose-response curves were determined and IC50 values were calculated using the GraphPad Prism software following a nonlinear regression (least squares fit) method.
In general terms: ATP-based viability assays read luminescence as a measure of living cells.
On to `Cc1cnc(Nc2ccc(N3CCN(C(=O)CCCNc4cccc5c4C(=O)N(C4CCC(=O)NC4=O)C5=O)CC3)cc2)nc1Nc1cccc(S(=O)(=O)NC(C)(C)C)c1` (centres unmarked) [JA-008, N-(tert-Butyl)-3-((2-((4-(4-(4-((2-(2,6-dioxopiperidin-3-yl)-1,3-dioxoisoindolin-4-yl)amino)butanoyl)piperazin-1-yl)phenyl)amino)-5-methylpyrimidin-4-yl)amino)benzenesulfonamide], for which the concentration for half-maximal inhibition (IC50) – broadly, the point on the concentration scale where inhibition reaches its midpoint – stood at 1460 nM.
On to `CS(=O)(=O)c1ccc(-c2cccc3nc(Nc4ccc(N5CCN(C(=O)CCCCCOc6ccc7c(c6)CN(C6CCC(=O)NC6=O)C7=O)CC5)cc4)nn23)cc1` (centres unmarked) [JA-261, 3-(5-((6-(4-(4-((5-(4-(methylsulfonyl)phenyl)-[1,2,4]triazolo[1,5-a]pyridin-2-yl)amino)phenyl)piperazin-1-yl)-6-oxohexyl)oxy)-1-oxoisoindolin-2-yl)piperidine-2,6-dione], for which the IC50 was determined as 32.8 nM.
Regarding `O=C1CCC(N2Cc3ccc(OCCCCCC(=O)N4CCC(n5cc(-c6cnc7cccc(-c8cc(F)c(CN9CCOCC9)c(F)c8)c7n6)cn5)CC4)cc3C2=O)C(=O)N1` (centres unmarked) [JA-274, 3-(6-((6-(4-(4-(8-(3,5-Difluoro-4-(morpholinomethyl)phenyl)quinoxalin-2-yl)-1H-pyrazol-1-yl)piperidin-1-yl)-6-oxohexyl)oxy)-1-oxoisoindolin-2-yl)piperidine-2,6-dione], the IC50 is 1670 nM.
On to `Cc1ncsc1-c1ccc(CNC(=O)[C@@H]2C[C@@H](O)CN2C(=O)[C@@H](NC(=O)CCCCCCCNC(=O)CN2CCC(n3cc(-c4cnc5cccc(-c6cc(F)c(CN7CCOCC7)c(F)c6)c5n4)cn3)CC2)C(C)(C)C)cc1` [JA-156, (2S,4R)-1-((S)-2-(8-(2-(4-(4-(8-(3,5-Difluoro-4-(morpholinomethyl)phenyl)quinoxalin-2-yl)-1H-pyrazol-1-yl)piperidin-1-yl)acetamido)octanamido)-3,3-dimethylbutanoyl)-4-hydroxy-N-(4-(4-methylthiazol-5-yl)benzyl)pyrrolidine-2-carboxamide], for which the half-maximal inhibitory concentration (IC50) was 3660 nM.
For the compound `Cc1cnc(Nc2ccc(N3CCN(CC(=O)NCCCCCCCNc4cccc5c4C(=O)N(C4CCC(=O)NC4=O)C5=O)CC3)cc2)nc1Nc1cccc(S(=O)(=O)NC(C)(C)C)c1` (centres unmarked) [JA-095, 2-(4-(4-((4-((3-(N-(tert-Butyl)sulfamoyl)phenyl)amino)-5-methylpyrimidin-2-yl)amino)phenyl)piperazin-1-yl)-N-(7-((2-(2,6-dioxopiperidin-3-yl)-1,3-dioxoisoindolin-4-yl)amino)heptyl)acetamide], the IC50 is 122 nM.
Take `Cc1cnc(Nc2ccc(N3CCN(CC(=O)NCCOCCOCCOCCOCCOCCC(=O)N[C@H](C(=O)N4C[C@H](O)C[C@H]4C(=O)NCc4ccc(-c5scnc5C)cc4)C(C)(C)C)CC3)cc2)nc1Nc1cccc(S(=O)(=O)NC(C)(C)C)c1` [JA-223, (2S,4R)-1-((S)-23-(tert-butyl)-1-(4-(4-((4-((3-(N-(tert-butyl)sulfamoyl)phenyl)amino)-5-methylpyrimidin-2-yl)amino)phenyl)piperazin-1-yl)-2,21-dioxo-6,9,12,15,18-pentaoxa-3,22-diazatetracosan-24-oyl)-4-hydroxy-N-(4-(4-methylthiazol-5-yl)benzyl)pyrrolidine-2-carboxamide]: the concentration for half-maximal inhibition (IC50) turned out to be 9380 nM.
In the case of `Cc1ncsc1-c1ccc(CNC(=O)[C@@H]2C[C@@H](O)CN2C(=O)[C@@H](NC(=O)CCOCCOCCNC(=O)CN2CCN(c3ccc(Nc4nc5cccc(-c6ccc(S(C)(=O)=O)cc6)n5n4)cc3)CC2)C(C)(C)C)cc1` [JA-135, (2S,4R)-1-((S)-14-(tert-Butyl)-1-(4-(4-((5-(4-(methylsulfonyl)phenyl)-[1,2,4]triazolo[1,5-a]pyridin-2-yl)amino)phenyl)piperazin-1-yl)-2,12-dioxo-6,9-dioxa-3,13-diazapentadecan-15-oyl)-4-hydroxy-N-(4-(4-methylthiazol-5-yl)benzyl)pyrrolidine-2-carboxamide], the IC50 is greater than 10000 nM.
Next, `O=C1CCC(N2C(=O)c3ccc(NCC(=O)N4CCC(n5cc(-c6cnc7cccc(-c8cc(F)c(CN9CCOCC9)c(F)c8)c7n6)cn5)CC4)cc3C2=O)C(=O)N1` (centres unmarked) [JA-191]: 9500 nM; `Cc1ncsc1-c1ccc(CNC(=O)[C@@H]2C[C@@H](O)CN2C(=O)[C@@H](NC(=O)CCCCCCCCNC(=O)CN2CCC(n3cc(-c4cnc5cccc(-c6cc(F)c(CN7CCOCC7)c(F)c6)c5n4)cn3)CC2)C(C)(C)C)cc1` [JA-161, (2S,4R)-1-((S)-2-(9-(2-(4-(4-(8-(3,5-Difluoro-4-(morpholinomethyl)phenyl)quinoxalin-2-yl)-1H-pyrazol-1-yl)piperidin-1-yl)acetamido)nonanamido)-3,3-dimethylbutanoyl)-4-hydroxy-N-(4-(4-methylthiazol-5-yl)benzyl)pyrrolidine-2-carboxamide]: 2370 nM.
For `O=C(CN1CCC(n2cc(-c3cnc4cccc(-c5cc(F)c(CN6CCOCC6)c(F)c5)c4n3)cn2)CC1)NCCOCCOCCNc1cccc2c1C(=O)N(C1CCC(=O)NC1=O)C2=O` (centres unmarked) [JA-140, 2-[4-[4-[8-[3,5-Difluoro-4-(morpholinomethyl)phenyl]quinoxalin-2-yl]pyrazol-1-yl]-1-piperidyl]-N-[2-[2-[2-[[2-(2,6-dioxo-3-piperidyl)-1,3-dioxo-isoindolin-4-yl]amino]ethoxy]ethoxy]ethyl]acetamide], the IC50 is greater than 10000 nM.
As to `CS(=O)(=O)c1ccc(-c2cccc3nc(Nc4ccc(N5CCN(CC(=O)NCCCNc6ccc7c(c6)C(=O)N(C6CCC(=O)NC6=O)C7=O)CC5)cc4)nn23)cc1` (centres unmarked) [JA-210, N-(3-((2-(2,6-Dioxopiperidin-3-yl)-1,3-dioxoisoindolin-5-yl)amino)propyl)-2-(4-(4-((5-(4-(methylsulfonyl)phenyl)-[1,2,4]triazolo[1,5-a]pyridin-2-yl)amino)phenyl)piperazin-1-yl)acetamide], the half-maximal inhibitory concentration (IC50) is greater than 10000 nM.
For `Cc1ncsc1-c1ccc(CNC(=O)[C@@H]2C[C@@H](O)CN2C(=O)[C@@H](NC(=O)CCOCCC(=O)N2CCC(n3cc(-c4cnc5cccc(-c6cc(F)c(CN7CCOCC7)c(F)c6)c5n4)cn3)CC2)C(C)(C)C)cc1` [JA-058, (2S,4R)-1-[(2S)-2-[3-[3-[4-[4-[8-[3,5-Difluoro-4-(morpholinomethyl)phenyl]quinoxalin-2-yl]pyrazol-1-yl]-1-piperidyl]-3-oxo-propoxy]propanoylamino]-3,3-dimethyl-butanoyl]-4-hydroxy-N-[[4-(4-methylthiazol-5-yl)phenyl]methyl]pyrrolidine-2-carboxamide], the IC50 was 2520 nM.
`CS(=O)(=O)c1ccc(-c2cccc3nc(Nc4ccc(N5CCN(C(=O)CCCNc6ccc7c(c6)C(=O)N(C6CCC(=O)NC6=O)C7=O)CC5)cc4)nn23)cc1` (centres unmarked) [JA-216, 2-(2,6-Dioxopiperidin-3-yl)-5-((4-(4-(4-((5-(4-(methylsulfonyl)phenyl)-[1,2,4]triazolo[1,5-a]pyridin-2-yl)amino)phenyl)piperazin-1-yl)-4-oxobutyl)amino)isoindoline-1,3-dione]: the half-inhibitory concentration (IC50) came to 3410 nM.
With `Cc1cnc(Nc2ccc(N3CCN(CC(=O)NCCOCCOCCOCCNc4cccc5c4C(=O)N(C4CCC(=O)NC4=O)C5=O)CC3)cc2)nc1Nc1cccc(S(=O)(=O)NC(C)(C)C)c1` (centres unmarked) [JA-088, 2-(4-(4-((4-((3-(N-(tert-Butyl)sulfamoyl)phenyl)amino)-5-methylpyrimidin-2-yl)amino)phenyl)piperazin-1-yl)-N-(2-(2-(2-(2-((2-(2,6-dioxopiperidin-3-yl)-1,3-dioxoisoindolin-4-yl)amino)ethoxy)ethoxy)ethoxy)ethyl)acetamide], the half-maximal inhibitory concentration (IC50) came out at 369 nM.
With `Cc1cnc(Nc2ccc(N3CCN(CC(=O)NCCCCCCNc4ccc5c(c4)C(=O)N(C4CCC(=O)NC4=O)C5=O)CC3)cc2)nc1Nc1cccc(S(=O)(=O)NC(C)(C)C)c1` (centres unmarked) [JA-245, 2-(4-(4-((4-((3-(N-(tert-butyl)sulfamoyl)phenyl)amino)-5-methylpyrimidin-2-yl)amino)phenyl)piperazin-1-yl)-N-(6-((2-(2,6-dioxopiperidin-3-yl)-1,3-dioxoisoindolin-5-yl)amino)hexyl)acetamide], the IC50 amounted to 150 nM.
As to `Cc1ncsc1-c1ccc(CNC(=O)[C@@H]2C[C@@H](O)CN2C(=O)[C@@H](NC(=O)CCOCCOCCC(=O)N2CCC(n3cc(-c4cnc5cccc(-c6cc(F)c(CN7CCOCC7)c(F)c6)c5n4)cn3)CC2)C(C)(C)C)cc1` [JA-056, (2S,4R)-1-[(2S)-2-[3-[2-[3-[4-[4-[8-[3,5-Difluoro-4-(morpholinomethyl)phenyl]quinoxalin-2-yl]pyrazol-1-yl]-1-piperidyl]-3-oxo-propoxy]ethoxy]propanoylamino]-3,3-dimethyl-butanoyl]-4-hydroxy-N-[[4-(4-methylthiazol-5-yl)phenyl]methyl]pyrrolidine-2-carboxamide], the IC50 is greater than 10000 nM.
The figure for `Cc1ncsc1-c1ccc(CNC(=O)[C@@H]2C[C@@H](O)CN2C(=O)[C@@H](NC(=O)CCCCCCC(=O)N2CCN(c3ccc(Nc4nc5cccc(-c6ccc(S(C)(=O)=O)cc6)n5n4)cc3)CC2)C(C)(C)C)cc1` [JA-062, (2S,4R)-1-((S)-3,3-Dimethyl-2-(8-(4-(4-((5-(4-(methylsulfonyl)phenyl)-[1,2,4]triazolo[1,5-a]pyridin-2-yl)amino)phenyl)piperazin-1-yl)-8-oxooctanamido)butanoyl)-4-hydroxy-N-(4-(4-methylthiazol-5-yl)benzyl)pyrrolidine-2-carboxamide] is greater than 10000 nM.
